Experimental data: ChEMBL document CHEMBL3525952, “A Baeyer-Villiger oxidation specifically catalyzed by human flavin-containing monooxygenase 5” (Drug Metab Dispos, 2011)

How the values were obtained:
[1] = Retention time of the compound by HPLC analysis; assay type: physicochemical
[2] = molecular target: T1, Flavin-containing monooxygenase 5 (Homo sapiens, UniProt P49326); assay: Drug level assessed as human recombinant FMO5-mediated compound formation from 10 uM ER-879819 in presence NADPH after 60 mins by LC-MS/MS method; assay type: ADME; settings: recombinant enzyme, 1 h
T1 sequence (P49326 whole entry): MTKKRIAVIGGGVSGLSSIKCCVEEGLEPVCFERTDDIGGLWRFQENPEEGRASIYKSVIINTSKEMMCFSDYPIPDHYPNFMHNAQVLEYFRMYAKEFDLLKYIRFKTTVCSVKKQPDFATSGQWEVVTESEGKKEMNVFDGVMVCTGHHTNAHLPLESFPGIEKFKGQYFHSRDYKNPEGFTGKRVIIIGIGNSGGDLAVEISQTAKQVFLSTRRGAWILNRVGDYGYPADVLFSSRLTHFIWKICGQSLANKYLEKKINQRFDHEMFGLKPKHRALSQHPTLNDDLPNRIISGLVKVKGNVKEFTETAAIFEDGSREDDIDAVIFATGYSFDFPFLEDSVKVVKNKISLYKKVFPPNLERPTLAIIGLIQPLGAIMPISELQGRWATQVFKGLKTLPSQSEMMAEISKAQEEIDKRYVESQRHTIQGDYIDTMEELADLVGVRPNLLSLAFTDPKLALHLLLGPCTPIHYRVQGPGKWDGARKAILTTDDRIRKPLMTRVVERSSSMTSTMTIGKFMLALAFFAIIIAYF

[3] = molecular target: T1, Flavin-containing monooxygenase 5; assay: Drug metabolism assessed as human recombinant FMO5-mediated compound formation from 50 uM E7016 in presence of human liver cytosolic fractions after 60 mins by LC-MS/MS method; assay type: ADME, tissue-based; settings: recombinant enzyme, 1 h
[4] = test system: Hepatocyte; assay: Drug level in rat hepatocytes treated with 50 uM E7016 after 120 mins in presence of NADPH by LC-MS/MS method; assay type: ADME, cell-based; settings: 2 h
[5] = Drug level in dog liver S9 fraction treated with 50 uM E7016 after 60 mins in presence of NADP+ by LC-MS/MS method; assay type: ADME, subcellular, Canis lupus familiaris; settings: s9, 1 h
[6] = molecular target: T1, Flavin-containing monooxygenase 5; assay: Drug metabolism assessed as human recombinant FMO5-mediated compound formation from 50 uM E7016 in presence of rat liver cytosolic fractions after 60 mins by LC-MS/MS method; assay type: ADME, tissue-based; settings: recombinant enzyme, 1 h
[7] = molecular target: T1, Flavin-containing monooxygenase 5; assay: Drug metabolism assessed as human recombinant FMO5-mediated compound formation from 50 uM E7016 in presence of dog liver cytosolic fractions after 60 mins by LC-MS/MS method; assay type: ADME, tissue-based; settings: recombinant enzyme, 1 h
[8] = Drug level in human liver S9 fraction treated with 50 uM E7016 after 60 mins in presence of NADP+ by LC-MS/MS method; assay type: ADME, subcellular; settings: s9, 1 h
[9] = test system: Liver microsome; assay: Drug level in human liver microsomes treated with 10 uM ER-879819 after 60 mins in presence of NADH by LC-MS/MS method; assay type: ADME; settings: 1 h
[10] = Drug level in human liver S9 fraction treated with 50 uM E7016 after 60 mins in presence of NAD+ by LC-MS/MS method; assay type: ADME, subcellular; settings: s9, 1 h
[11] = molecular target: T1, Flavin-containing monooxygenase 5; assay: Drug level assessed as human recombinant FMO5-mediated compound formation from 10 uM ER-879819 in presence NADH after 60 mins by LC-MS/MS method; assay type: ADME; settings: recombinant enzyme, 1 h
[12] = test system: Liver microsome; assay: Drug level in dog liver microsomes treated with 10 uM ER-879819 after 60 mins in presence of NADH by LC-MS/MS method; assay type: ADME, Canis lupus familiaris; settings: 1 h
[13] = Drug level in dog liver S9 fraction treated with 50 uM E7016 after 60 mins in presence of NAD+ by LC-MS/MS method; assay type: ADME, subcellular, Canis lupus familiaris; settings: s9, 1 h
[14] = Drug level in dog hepatocytes treated with 50 uM E7016 after 120 mins in presence of NADPH by LC-MS/MS method; assay type: ADME, cell-based, Canis lupus familiaris, Hepatocyte; settings: 2 h
[15] = test system: Hepatocyte; assay: Drug level in human hepatocytes treated with 50 uM E7016 after 120 mins in presence of NADPH by LC-MS/MS method; assay type: ADME, cell-based; settings: 2 h

Compound | Retention_time [1] | Drug metabolism [2] | Drug metabolism [3] | Drug metabolism [4] | Drug metabolism [5] | Drug metabolism [6] | Drug metabolism [7] | Drug metabolism [8] | Drug metabolism [9] | Drug metabolism [10] | Drug metabolism [11] | Drug metabolism [12] | Drug metabolism [13] | Drug metabolism [14] | Drug metabolism [15]
Cc1ccc2c(c1)-c1n[nH]c(=O)c3cccc(c13)O2 | 10.7 min | – | – | – | – | – | – | – | – | – | – | – | – | – | –
O=C(O)CCN(CCO)Cc1ccc2c(c1)-c1n[nH]c(=O)c3cccc(c13)O2 | – | metabolite_detected | metabolite_detected | metabolite_detected | metabolite_detected | metabolite_detected | metabolite_detected | metabolite_detected | metabolite_detected | metabolite_detected | metabolite_detected | metabolite_detected | metabolite_detected | metabolite_detected | metabolite_detected
